Measurements as given in patent US8344008B2 (Janssen Pharmaceutica NV, priority 2007, dated 2013).
pKi: −log10 of the molar value. Counter-ions that a name gives are not always drawn.

Target: T1, recombinant human LTA4 hydrolase (rhLTA4H) (Homo sapiens, UniProt P09960)
T1 construct: made in house; host or cells: Spodoptera frugiperda (Sf-9) cells, baculovirus (pFastBac1)
T1 sequence (P09960 1-611): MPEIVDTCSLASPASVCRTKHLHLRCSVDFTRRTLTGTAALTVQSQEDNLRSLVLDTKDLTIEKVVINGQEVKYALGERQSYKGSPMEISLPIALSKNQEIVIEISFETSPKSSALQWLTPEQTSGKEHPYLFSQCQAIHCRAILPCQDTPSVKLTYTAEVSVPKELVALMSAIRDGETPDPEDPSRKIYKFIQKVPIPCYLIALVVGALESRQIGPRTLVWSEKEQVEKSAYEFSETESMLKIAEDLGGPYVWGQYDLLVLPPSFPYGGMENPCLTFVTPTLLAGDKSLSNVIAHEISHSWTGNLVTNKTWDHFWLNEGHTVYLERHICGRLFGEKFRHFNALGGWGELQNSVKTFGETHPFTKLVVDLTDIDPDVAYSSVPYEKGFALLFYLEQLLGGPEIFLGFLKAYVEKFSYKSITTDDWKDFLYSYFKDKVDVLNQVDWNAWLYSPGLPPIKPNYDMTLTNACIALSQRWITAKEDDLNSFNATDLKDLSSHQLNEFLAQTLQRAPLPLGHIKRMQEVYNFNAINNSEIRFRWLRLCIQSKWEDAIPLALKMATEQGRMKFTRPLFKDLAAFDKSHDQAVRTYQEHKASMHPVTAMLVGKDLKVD
Experiment: Recombinant Human LTA4 Hydrolase Assay for LTA4 Hydrolase Inhibitor Activity
Format: biochemical
Conditions: average of results obtained; LTB4 quantified by enzyme-linked immunoassay
Summary of the method: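 Baculovirus/Sf-9-expressed human LTA4 hydrolase (36 ng) preincubated with compound 10 min at rt in 0.1 M potassium phosphate pH 7.4, 5 mg/mL fatty-acid-free BSA. Reaction started with 9 ng LTA4 free acid, run 10 min at rt; LTB4 measured by enzyme immunoassay, IC50 from 4-parameter fit.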

## O=C(c1cnccn1)N1CC2CN(Cc3ccc(Oc4nc5ccccc5s4)cc3)CC2C1 (centres unmarked) [Example 105, {5-[4-(Benzothiazol-2-yloxy)-benzyl]-hexahydro-pyrrolo[3,4-c]pyrrol-2-yl}-pyrazin-2-yl-methanone]
  pKi: 7.16

## c1ccc2sc(Oc3ccc(CCN4C[C@@H]5C[C@H]4CN5)cc3)nc2c1 [Example 7B, (S,S)-2-{4-[2-(2,5-Diaza-bicyclo[2.2.1]hept-2-yl)-ethyl]-phenoxy}-benzothiazole hydrochloride]
  pKi: 8.00

## CS(=O)(=O)N1C[C@H]2C[C@@H]1CN2Cc1ccc(Oc2nc3ccc(Cl)cc3s2)cc1 [Example 236, (R,R)-6-Chloro-2-[4-(5-methanesulfonyl-2,5-diaza-bicyclo[2.2.1]hept-2-ylmethyl)-phenoxy]-benzothiazole]
  pKi: 6.77

## NCC(=O)N[C@H]1C[C@H]2CC[C@@H](C1)N2Cc1ccc(Oc2nc3ccccc3s2)cc1 [Example 56, meso-endo-2-Amino-N-{8-[4-(benzothiazol-2-yloxy)-benzyl]-8-aza-bicyclo[3.2.1]oct-3-yl}-acetamide]
  pKi: 7.52

## CS(=O)(=O)N[C@H]1C[C@H]2CC[C@@H](C1)N2Cc1ccc(Oc2nc3c(Cl)cccc3s2)cc1 [Example 167, meso-endo-N-{8-[4-(4-Chloro-benzothiazol-2-yloxy)-benzyl]-8-aza-bicyclo[3.2.1]oct-3-yl}-methanesulfonamide]
  pKi: 7.48

## CS(=O)(=O)N1CC2CN(Cc3ccc(Oc4nc5ccccc5s4)cc3)CC2C1 (centres unmarked) [Example 129, 2-[4-(5-Methanesulfonyl-hexahydro-pyrrolo[3,4-c]pyrrol-2-ylmethyl)-phenoxy]-benzothiazole]
  pKi: 7.46

## CS(=O)(=O)N1CC2CCC(C1)N2CCc1ccc(Oc2nc3c(Cl)cccc3s2)cc1 [Example 281, meso-4-Chloro-2-{4-[2-(3-methanesulfonyl-3,8-diaza-bicyclo[3.2.1]oct-8-yl)-ethyl]-phenoxy}-benzothiazole]
  pKi: 5.69

## CC(=O)N1C[C@@H]2C[C@H]1CN2Cc1ccc(Cc2nc3ccccc3s2)cc1 [Example 4, (S,S)-1-[5-(4-Benzothiazol-2-ylmethyl-benzyl)-2,5-diaza-bicyclo[2.2.1]hept-2-yl]-ethanone]
  pKi: 6.79

## CC(=O)N1[C@@H]2CC[C@H]1C[C@H](NCCc1ccc(Oc3nc4ccc(F)cc4s3)cc1)C2 [Example 209, meso-exo-1-(3-{2-[4-(6-Fluoro-benzothiazol-2-yloxy)-phenyl]-ethylamino}-8-aza-bicyclo[3.2.1]oct-8-yl)-ethanone]
  pKi: 7.16

## NC(=O)N[C@@H]1C[C@H]2CC[C@@H](C1)N2CCc1ccc(Oc2nc3ccc(F)cc3s2)cc1 [Example 179, meso-exo-(8-{2-[4-(6-Fluoro-benzothiazol-2-yloxy)-phenyl]-ethyl}-8-aza-bicyclo[3.2.1]oct-3-yl)-urea]
  pKi: 7.33

## CC(=O)N1C[C@@H]2C[C@H]1CN2Cc1ccc(Oc2nc3ccccc3s2)cc1F [Example 79, (S,S)-1-{5-[4-(Benzothiazol-2-yloxy)-2-fluoro-benzyl]-2,5-diaza-bicyclo[2.2.1]hept-2-yl}-ethanone]
  pKi: 7.23

## CC(=O)N1CC2CN(CCOc3ccc(Oc4nc5ccccc5s4)cc3)CC2C1 (centres unmarked) [Example 94, 1-(5-{2-[4-(Benzothiazol-2-yloxy)-phenoxy]-ethyl}-hexahydro-pyrrolo[3,4-c]pyrrol-2-yl)-ethanone]
  pKi: 7.92

## COC(=O)CN1CC2CN(Cc3ccc(Oc4nc5ccccc5s4)cc3)CC2C1 (centres unmarked) [Example 157, {5-[4-(Benzothiazol-2-yloxy)-benzyl]-hexahydro-pyrrolo[3,4-c]pyrrol-2-yl}-acetic acid methyl ester]
  pKi: 7.24

## CS(=O)(=O)N[C@H]1C[C@H]2CC[C@@H](C1)N2Cc1ccc(Oc2nc3cc(F)ccc3s2)cc1 [Example 208, meso-endo-N-{8-[4-(5-Fluoro-benzothiazol-2-yloxy)-benzyl]-8-aza-bicyclo[3.2.1]oct-3-yl}-methanesulfonamide]
  pKi: 7.66

## CS(=O)(=O)N[C@@H]1C[C@H]2CC[C@@H](C1)N2Cc1ccc(Oc2nc3c(F)cccc3s2)cc1 [Example 188, meso-exo-N-{8-[4-(4-Fluoro-benzothiazol-2-yloxy)-benzyl]-8-aza-bicyclo[3.2.1]oct-3-yl}-methanesulfonamide]
  pKi: 8.40

## NC(=O)N1CC2CN(Cc3ccc(Oc4nc5ccccc5s4)cc3)CC2C1 (centres unmarked) [Example 139, 5-[4-(Benzothiazol-2-yloxy)-benzyl]-hexahydro-pyrrolo[3,4-c]pyrrole-2-carboxylic acid amide]
  pKi: 8.52

## NC(=O)N1CC2CN(CCOc3ccc(Oc4nc5ccccc5s4)cc3)CC2C1 (centres unmarked) [Example 134, 5-{2-[4-(Benzothiazol-2-yloxy)-phenoxy]-ethyl}-hexahydro-pyrrolo[3,4-c]pyrrole-2-carboxylic acid amide]
  pKi: 7.49

## CC(C)(O)C(=O)N1C[C@@H]2C[C@H]1CN2CCc1cccc(Oc2nc3ccccc3s2)c1 [Example 19, (S,S)-1-(5-{2-[3-(Benzothiazol-2-yloxy)-phenyl]-ethyl}-2,5-diaza-bicyclo[2.2.1]hept-2-yl)-2-hydroxy-2-methyl-propan-1-one]
  pKi: 6.79

## CS(=O)(=O)N[C@@H]1C[C@H]2CC[C@@H](C1)N2CCOc1ccc(Oc2nc3cccc(F)c3s2)cc1 [Example 251, meso-exo-N-(8-{2-[4-(7-Fluoro-benzothiazol-2-yloxy)-phenoxy]-ethyl}-8-aza-bicyclo[3.2.1]oct-3-yl)-methanesulfonamide]
  pKi: 7.48

## CC(=O)N[C@H]1C[C@H]2CC[C@@H](C1)N2Cc1ccc(Cc2nc3ccccc3s2)cc1 [Example 5, meso-endo-N-[8-(4-Benzothiazol-2-ylmethyl-benzyl)-8-aza-bicyclo[3.2.1]oct-3-yl]-acetamide]
  pKi: 7.46

## CC(=O)N1C[C@@H]2C[C@H]1CN2CCOc1ccc(Oc2nc3ccccc3s2)cc1 [Example 9, (S,S)-1-(5-{2-[4-(Benzothiazol-2-yloxy)-phenoxy]-ethyl}-2,5-diaza-bicyclo[2.2.1]hept-2-yl)-ethanone]
  pKi: 8.52

## O=C(CO)N1C[C@H]2C[C@@H]1CN2Cc1ccc(Oc2nc3ccccc3s2)cc1 [Example 44, (R,R)-1-{5-[4-(Benzothiazol-2-yloxy)-benzyl]-2,5-diaza-bicyclo[2.2.1]hept-2-yl}-2-hydroxy-ethanone]
  pKi: 7.42

## CS(=O)(=O)N1C[C@@H]2C[C@H]1CN2Cc1ccc(Oc2nc3ccc(F)cc3s2)cc1 [Example 230, (S,S)-6-Fluoro-2-[4-(5-methanesulfonyl-2,5-diaza-bicyclo[2.2.1]hept-2-ylmethyl)-phenoxy]-benzothiazole]
  pKi: 6.40

## NC(=O)N1CC2CCN(Cc3ccc(Oc4nc5ccccc5s4)cc3)CC2C1 (single isomer, unassigned; (+)) [Example 142A, (+)-5-[4-(Benzothiazol-2-yloxy)-benzyl]-octahydro-pyrrolo[3,4-c]pyridine-2-carboxylic acid amide]
  pKi: 7.28

## CS(=O)(=O)N[C@@H]1C[C@H]2CC[C@@H](C1)N2CCc1ccc(Oc2nc3c(Cl)cccc3s2)cc1 [Example 162, meso-exo-N-(8-{2-[4-(4-Chloro-benzothiazol-2-yloxy)-phenyl]-ethyl}-8-aza-bicyclo[3.2.1]oct-3-yl)-methanesulfonamide]
  pKi: 6.73

## COCC(=O)N1C[C@@H]2C[C@H]1CN2CCc1cccc(Oc2nc3ccccc3s2)c1 [Example 43]
  pKi: 6.35
